From US20250197358A1, “PESTICIDALLY ACTIVE THIOSEMICARBAZONE COMPOUNDS” (BASF SE, priority 2022, published 2025)

Tests used:
Assay in all cases: whole plant or invertebrate
Type in all cases: in vivo
[1] = system: southern armyworm (Spodoptera eridania); conditions: in Phaseolus lunatus, 96 h, 2nd instar larvae, 4 days after treatment, read-out: mortality in comparison with untreated controls
Method: The 10,000 ppm solution was serially diluted in 100% cyclohexanone to make interim solutions. These served as stock solutions for which final dilutions were made by the Tecan in 50% acetone:50% water (v/v) into 10 or 20 ml glass vials. A nonionic surfactant (Kinetic®) was included in the solution at a volume of 0.01% (v/v). The vials were then inserted into an automated electrostatic sprayer equipped with an atomizing nozzle for application to plants/insects.
Lima bean plants (variety Sieva) were grown 2 plants to a pot and selected for treatment at the 1st true leaf stage. Test solutions were sprayed onto the foliage by an automated electrostatic plant sprayer equipped with an atomizing spray nozzle. The plants were dried in the sprayer fume hood and then removed from the sprayer. Each pot was placed into perforated plastic bags with a zip closure. About 10 to 11 armyworm larvae were placed into the bag and the bags zipped closed. Test plants were maintained in a growth room at about 25° C. and about 20-40% relative humidity for 4 days, avoiding direct exposure to fluorescent light (24 hour photoperiod) to prevent trapping of heat inside the bags. Mortality and reduced feeding were assessed 4 days after treatment, compared to untreated control plants.

[2] = system: yellow fever mosquito (Aedes aegypti); conditions: 48 h, larval mortality after 2 days, read-out: mortality in comparison with untreated controls
Method: Example B1: Action on Yellow Fever Mosquito (Aedes aegypti)
For evaluating control of yellow fever mosquito (Aedes aegypti) the test unit consisted of 96-well-microtiter plates containing 200 μl of tap water per well and 5-15 freshly hatched A. aegypti larvae.
The active compounds or mixtures were formulated using a solution containing 75% (v/v) water and 25% (v/v) DMSO. Different concentrations of formulated compounds or mixtures were sprayed onto the insect diet at 2.5 μl, using a custom built micro atomizer, at two replications. For experimental mixtures in these tests identical volumes of both mixing partners at the desired concentrations respectively, were mixed together.
After application, microtiter plates were incubated at 28±1° C., 80±5% RH for 2 days. Larval mortality was then visually assessed.

[3] = system: tobacco budworm (Heliothis virescens); conditions: 120 h, egg and larval mortality after 5 days, read-out: mortality in comparison with untreated controls
Method: For evaluating control of tobacco budworm (Heliothis virescens) the test unit consisted of 96-well-microtiter plates containing an insect diet and 15-25 H. virescens eggs.
Different concentrations of formulated compounds were sprayed onto the insect diet at 10 μl, using a custom-built micro atomizer, at two replications.
After application, microtiter plates were incubated at about 28+1° C. and about 80+5% relative humidity for 5 days. Egg and larval mortality were then visually assessed.

[4] = system: orchid thrips (Dichromothrips corbetti); conditions: adult thrips, 72 hours after treatment, read-out: mortality in comparison with untreated controls
Method: Dichromothrips corbetti adults used for bioassay were obtained from a colony maintained continuously under laboratory conditions. For testing purposes, the test compound is diluted in a 1:1 mixture of acetone:water (vol:vol), plus Kinetic® HV at a rate of 0.01% v/v.
Thrips potency of each compound was evaluated by using a floral-immersion technique. All petals of individual, intact orchid flowers were dipped into treatment solution and allowed to dry in Petri dishes. Treated petals were placed into individual re-sealable plastic along with about 20 adult thrips. All test arenas were held under continuous light and a temperature of about 28° C. for duration of the assay. After 3 days, the numbers of live thrips were counted on each petal. The percent mortality was recorded 72 hours after treatment.

[5] = system: diamond back moth (Plutella xylostella); conditions: in Brassica oleracea, foliar, 3rd instar larvae, 72 hours after treatment, read-out: mortality in comparison with untreated controls
Method: Surfactant (Kinetic® HV) is added at a rate of 0.01% (v/v). The test solution is prepared at the day of use.
Leaves of cabbage were dipped in test solution and air-dried. Treated leaves were placed in petri dishes lined with moist filter paper and inoculated with ten 3rd instar larvae. Mortality was recorded 72 hours after treatment. Feeding damages were also recorded using a scale of 0-100%.

[6] = system: boll weevil (Anthonomus grandis); conditions: 120 h, egg and larval mortality after 5 days, read-out: mortality in comparison with untreated controls

SMILES | mortality at 300 ppm [1] | mortality at 800 ppm [2] | mortality at 800 ppm [3] | mortality at 500 ppm [4] | mortality at 500 ppm [5] | mortality at 800 ppm [6]
CC(=O)OCS/C(=N\N=C\c1ccc(-c2nn(C)c(NC(=O)c3ccc(OC(F)(F)F)cc3)c2C#N)cc1)Nc1cc(C)ccc1C(C)C [Compound C-7, [(Z)—N′-[(E)-[4-[4-cyano-1-methyl-5-[[4-(trifluoromethoxy)benzoyl]amino]pyrazol-3-yl]phenyl]methyleneamino]-N-(2-isopropyl-5-methylphenyl)carbamimidoyl]sulfanylmethyl acetate] | ≥ 75% | ≥ 50% | ≥ 75% | ≥ 75% | ≥ 75% | ≥ 75%
Cc1ccc(C(C)C)c(N/C(=N/N=C/c2ccc(-c3nn(C)c(NC(=O)c4ccc(OC(F)(F)F)cc4)c3C#N)cc2)SCOC(=O)C(C)C)c1 [Compound C-8, [(Z)—N′-[(E)-[4-[4-cyano-1-methyl-5-[[4-(trifluoromethoxy)benzoyl]amino]pyrazol-3-yl]phenyl]methyleneamino]-N-(2-isopropyl-5-methylphenyl)carbamimidoyl]sulfanylmethyl 2-methylpropanoate] | ≥ 75% | ≥ 50% | ≥ 75% | ≥ 75% | ≥ 75% | ≥ 75%
